Measured values reported in patent publication US7947854B2, “Bis-cationic compounds and use thereof” (The University of Sydney, priority 2003, dated 2011).
Marks after values point to notes of the source that are not given here.

Legend:
[1] = system: cytosolic phospholipase B (PLB activity); assay: Radiometric assay, cytosolic PLB activity; assay type: biochemical, Cryptococcus neoformans H99; details: pH 4
Protocol: Fungal isolates and media. […] Isolate H99 was kindly supplied by Dr. Gary Cox (Duke University Medical Center, Durham, N.C., USA), and subcultured onto Sabouraud dextrose agar (SDA) at 30° C.
Cellular disruption to prepare membrane and cytosolic fractions. The cell pellet from the preparation of the supernatant, above, was also frozen at −70° C. After washing twice with imidazole buffer, it was disrupted in the presence of a protease inhibitor cocktail (P 8215 for fungal and yeast cells; 4-(2-aminoethyl)benzenesulfonyl fluoride hydrochloride, 100 mM, 1,10-phenanthroline, 500 mM, pepstatin A, 2.2 mM, E-64, 1.4 mM; Sigma) in a MiniBeadbeater-8 Cell Disrupter (MBB-8; Daintree Scientific, Tasmania, Australia) for three cycles of 1 min, alternating with a 1 min cooling period on ice. The homogenate was centrifuged at 14,000 g for 15 min to obtain the membrane (pellet) and the cytosolic (supernatant) fractions.
Radiometric assay method for phospholipases. Enzyme activities were measured as described previously in a final volume of 125 μL at 37° C. For the determination of secreted PLB activity, carrier dipalmitoyl phosphatidylcholine (DPPC, final concentration 800 μM) and 1,2-di[1-^14C] palmitoyl phosphatidylcholine (20,000 dpm) were dried under nitrogen and suspended in 125 mM imidazole acetate buffer (assay buffer, pH 4.0) by sonication using a Branson 450 sonifier. The reaction time was 22 min, using 1 μg total protein and PLB activity was determined by the rate of decrease of the radiolabelled PC substrate, with appearance of the label in free fatty acid. This assay also simultaneously allows for the determination of phospholipase A, C and D activities. These activities were measured by the appearance of radiolabel from PC in Lyso PC, diacylglycerol and phosphatidic acid, respectively.
All reactions were terminated by adding 0.5 mL of chloroform:methanol (2:1 v/v). The reaction products were extracted by the method as disclosed in Bligh, E. C. and W. J. Dyer. 1959 ‘A rapid method of total lipid extraction and purification.’ Can. J. Biochem. Physiol. 37:911-917, separated by TLC and quantified as previously described. In the case of PLC activity, the TLC plates were developed in petroleum ether (BP 60-80° C.): diethyl ether: acetic acid (90:15:1, v/v/v) instead of chloroform:methanol:water (65:25:4, v/v/v).
All experiments were carried out in duplicate or triplicate. The effects of pH on the various phospholipase activities were measured using 50 mM final concentration of imidazole-acetate buffer (pH range 3-5), MES buffer (pH range 6-8) and glycine buffer (pH 9-10). Controls for non-enzymic breakdown of substrates were included at all pH values. Cations, Triton X-100 and metal chelators were made up as stock solutions in water and diluted to the final concentration in the appropriate assay buffer.
Preparation of inhibitors and use in assays. The following compounds were tested (for structures, see FIG. 2): compound 1, 1,12-bis(tributylphosphonium)dodecane dibromide (Fluka AG, Buchs, Switzerland); compound 2, 1,10-bis(tributylammonium)-decane dibromide; compound 3, 1,12-bis(tributylammonium)do-decane dibromide (both synthesised in-house); compound 4, 1,10-bis(trimethylammonium)decane dibromide [“decamethonium”] (Sigma, St. Louis Mo., USA). All compounds were prepared as stock solutions of 700 μM in assay buffer containing 5 mM EDTA, which was then diluted serially with buffer to obtain solutions of 70, 7, 0.7 and 0.07 μM. In each assay, 45 μL of these solutions was used, and the final volume of 125 μL was made up of substrate, enzyme and buffer. The radiometric assay was carried out as above.

[2] = system: secreted phospholipase B (LPL/LPTA activities); assay: Radiometric assay, secreted LPL and LPTA activities (Lyso assay); assay type: biochemical, Cryptococcus neoformans H99; details: for % Inhibition LPL, Secretory Enzyme / % Inhibition LPTA, Secretory Enzyme: pH 4
Summary of the method: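 Cell-free supernatant from C. neoformans H99 (incubated 24 h at 37° C in imidazole buffer, pH 5.5) with 1 μg total protein and 200 μM lyso-PC incl. 1-[^14C]palmitoyl lyso-PC, 15 s reaction. LPL from substrate loss, LPTA from radiolabelled PC formed, after extraction and TLC; inhibitors tested at 25 and 250 μM, then 2.5 and 0.25 μM, inhibition vs inhibitor-free control, triplicate.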

CCCC[P+](CCCC)(CCCC)CCCCCCCCCCCC[P+](CCCC)(CCCC)CCCC [Compound 1, 1,12-bis(tributylphosphonium)dodecane dibromide]
% Inhibition PLB, Cytosolic Enzyme ([1]; 2.5 μM): 0%
% Inhibition PLB, Cytosolic Enzyme ([1]; 25 μM): 0%
% Inhibition PLB, Cytosolic Enzyme ([1]; 250 μM): 41.3* %
Lyso assay (% inhibition) LPL ([2]; 0.25 μM): 0%
Lyso assay (% inhibition) LPTA ([2]; 0.25 μM): 0%
% Inhibition LPL, Secretory Enzyme ([2]; 0.25 μM): 0%
% Inhibition LPTA, Secretory Enzyme ([2]; 0.25 μM): 0%
Lyso assay (% inhibition) LPL ([2]; 2.5 μM): 0%
Lyso assay (% inhibition) LPTA ([2]; 2.5 μM): 0%
% Inhibition LPL, Secretory Enzyme ([2]; 2.5 μM): 0%
% Inhibition LPTA, Secretory Enzyme ([2]; 2.5 μM): 0%
Lyso assay (% inhibition) LPL ([2]; 25 μM): 0%
Lyso assay (% inhibition) LPTA ([2]; 25 μM): 0%
% Inhibition LPL, Secretory Enzyme ([2]; 25 μM): 0%
% Inhibition LPTA, Secretory Enzyme ([2]; 25 μM): 0%
Lyso assay (% inhibition) LPL ([2]; 250 μM): 6%
Lyso assay (% inhibition) LPTA ([2]; 250 μM): 4%
% Inhibition LPL, Secretory Enzyme ([2]; 250 μM): 6.3* %
% Inhibition LPTA, Secretory Enzyme ([2]; 250 μM): 3.7* %
